According to US9555036B2, “Pyrazolopyrimidine compounds” (GlaxoSmithKline LLC, priority 2012, dated 2017):
Where a name gives a salt, the structure may show the parent alone.

system: TNF-α; assay: Induction of TNF-α using fresh human whole blood (WB); type: cell-based; settings: three donors, overnight incubation, cytokine as % of 2 μM resiquimod control, read-out: mean pEC50 for TNF-α (converted)
Protocol: Assay for the Induction of Interferon-α and TNF-α Using Fresh Human Whole Blood (WB) Compound Preparation
Compounds were prepared at 100× required concentration in DMSO in flat-bottom microtitre plates at a volume of 1.5 μL. Columns 1-10 contained a 1 in 4 serial dilution of the test compound. Included on each plate was a serial dilution of the TLR7/8 agonist resiquimod as a standard and Column 11 contained 1.5 μl of 200 μM resiquimod (giving a 2 μM final concentration, used to define the approximate maximal response to resiquimod). Each compound was assayed in duplicate for each donor.
Incubation and Assays for Interferon-α and TNF-α
Blood samples from three human donors were collected into sodium heparin (10 U/ml). 150 μl of whole Blood was dispensed into Col 1 to 11 of assay plates containing 1.5 μl of test compound or standard in DMSO. Plates were placed in an incubator overnight (37° C., 95% air, 5% CO2). Following the overnight incubation, plates were removed from the incubator & mixed on an orbital shaker for approximately 1 minute. 100 μl of 0.9% saline was added to each well and the plates mixed again on an orbital shaker. Plates were then centrifuged (2500 rpm, 10 mins), after which a sample of plasma was removed using a Biomek FX and assayed for both IFN-α and TNF-α using the MSD (Mesoscale Discovery) electrochemiluminescence assay platform. The IFN-α assay was carried out similarly to that described above. The TNF-α assay was carried out as per kit instructions (Cat No K111BHB).
Cytokine released was expressed as a percentage of the 2 μM resiquimod control (column 11). This percentage was plotted against compound concentration and the pEC50 for the response determined by non-linear least squares curve fitting. For the IFN-α responses, generally a 4 parameter logistic model was selected. For the TNF responses where a clear maximum response was obtained (i.e. a well defined plateau in the response was observed) then a 4 parameter model was generally used. If the upper asymptote of the curve wasn't well defined then the curve fitting was generally constrained to a maximal response of 100% (i.e. to the response to 2 μM resiquimod) or to the response of the highest concentration tested if this was greater than the resiquimod response. Some curves were bell shaped for one or both cytokines and the cytokine data on the down slope of the bell shaped response (i.e. concentrations above those giving the maximal response) were generally excluded from the fit, usually with the exception of the concentration immediately above the peak response. Curve fitting thus concentrated on the up slope of the dose response curve.

EC50, ≤ 3.98 µM:
CCCCc1nc(N)c2[nH]nc(CCCCCN3CCC(F)CC3)c2n1 [Example 18, 5-Butyl-3-(5-(4-fluoropiperidin-1-yl)pentyl)-1H-pyrazolo[4,3-d]pyrimidin-7-amine]
CCCCc1nc(N)c2[nH]nc(CCCCCN3CCCCC3)c2n1 [Example 5, 5-Butyl-3-(5-(piperidin-1-yl)pentyl)-1H-pyrazolo[4,3-d]pyrimidin-7-amine]
CCCCc1nc(N)c2[nH]nc(CCCCCN3CC[C@@H](F)C3)c2n1 [Example 14, (R)-5-Butyl-3-(5-(3-fluoropyrrolidin-1-yl)pentyl)-1H-pyrazolo[4,3-d]pyrimidin-7-amine]
COCCc1nc(N)c2[nH]nc(CCCCCCN3CCCC3)c2n1 [Example 4, 5-(2-Methoxyethyl)-3-(6-(pyrrolidin-1-yl)hexyl)-1H-pyrazolo[4,3-d]pyrimidin-7-amine]
CCCCc1nc(N)c2[nH]nc(CCCCCN3CCCCCC3)c2n1 [Example 10, 3-(5-(Azepan-1-yl)pentyl)-5-butyl-1H-pyrazolo[4,3-d]pyrimidin-7-amine]
CCCCc1nc(N)c2[nH]nc(CCCCCCN3CCCCC3)c2n1 [Example 1, 5-Butyl-3-(6-(piperidin-1-yl)hexyl)-1H-pyrazolo[4,3-d]pyrimidin-7-amine formate]
CCCCc1nc(N)c2[nH]nc(CCCCCN3CCC(O)CC3)c2n1 [Example 16, 1-(5-(7-Amino-5-butyl-1H-pyrazolo[4,3-d]pyrimidin-3-yl)pentyl)piperidin-4-ol]
CCCCc1nc(N)c2[nH]nc(CCCCCN3CCCC3)c2n1 [Example 6, 5-Butyl-3-(5-(pyrrolidin-1-yl)pentyl)-1H-pyrazolo[4,3-d]pyrimidin-7-amine]
CCCCc1nc(N)c2[nH]nc(CCCCCCN3CC[C@H](F)C3)c2n1 [Example 11, (S)-5-Butyl-3-(6-(3-fluoropyrrolidin-1-yl)hexyl)-1H-pyrazolo[4,3-d]pyrimidin-7-amine]
CCCCc1nc(N)c2[nH]nc(CCCCCCN3CC[C@@H](F)C3)c2n1 [Example 13, (R)-5-Butyl-3-(6-(3-fluoropyrrolidin-1-yl)hexyl)-1H-pyrazolo[4,3-d]pyrimidin-7-amine formate]
COCCc1nc(N)c2[nH]nc(CCCCCCN3CCCCC3)c2n1 [Example 2, 5-(2-Methoxyethyl)-3-(6-(piperidin-1-yl)hexyl)-1H-pyrazolo[4,3-d]pyrimidin-7-amine]
CCCCc1nc(N)c2[nH]nc(CCCCCCN3CCC(F)CC3)c2n1 [Example 17, 5-Butyl-3-(6-(4-fluoropiperidin-1-yl)hexyl)-1H-pyrazolo[4,3-d]pyrimidin-7-amine formate]
CCCCc1nc(N)c2[nH]nc(CCCCCCCN3CCCCC3)c2n1 [Example 7, 5-Butyl-3-(7-(piperidin-1-yl)heptyl)-1H-pyrazolo[4,3-d]pyrimidin-7-amine]
CCCCc1nc(N)c2[nH]nc(CCCCCN3CC[C@H](F)C3)c2n1 [Example 12, (S)-5-Butyl-3-(5-(3-fluoropyrrolidin-1-yl)pentyl)-1H-pyrazolo[4,3-d]pyrimidin-7-amine]
CCCCc1nc(N)c2[nH]nc(CCCCCCN3CCCCCC3)c2n1 [Example 9, 3-(6-(Azepan-1-yl)hexyl)-5-butyl-1H-pyrazolo[4,3-d]pyrimidin-7-amine]
CCCCc1nc(N)c2[nH]nc(CCCCCCCN3CCCC3)c2n1 [Example 8, 5-Butyl-3-(7-(pyrrolidin-1-yl)heptyl)-1H-pyrazolo[4,3-d]pyrimidin-7-amine]
CCCCc1nc(N)c2[nH]nc(CCCCCCN3CCC(O)CC3)c2n1 [Example 15, 1-(6-(7-Amino-5-butyl-1H-pyrazolo[4,3-d]pyrimidin-3-yl)hexyl)piperidin-4-ol]
